As usually defined, the half-life is how long it takes for the measured level to halve. Higher therefore signals slow decline. The solubility is how much of the substance goes into solution per volume. The low end stands for a poorly soluble substance, the high end for a readily soluble substance.

The text below walks through data of patent US10865213B2, “Max binders as MYC modulators and uses thereof” (Massachusetts Institute of Technology, priority 2016, dated 2020).

One series deals with P493-6 Myc ON cells. In words: Cell viability, CELL TITER GLO, P493-6 Myc ON. It counts as cell-based, human. The source says:
(§1) FIGS. 3A to 3B show exemplary results of an assay of cell viability and the selectivity of Compound 1 for cells expressing Myc and non-Myc expressing cells. Compound 1 affected cell viability after treatment with Compound 1 for 3 days, as measured using CELL TITER GLO (Promega) in a cancer cell line (P493-6, derived from human B-cells), where Myc is ON (FIG. 3A) or Myc is OFF (FIG. 3B). Results were expressed as a mean+/−SEM (n=3). RLU: Relative Luminescence Units.
(§2) The selectivity of Compound 1 for cells expressing Myc over non-Myc expressing cells in cancer cell line P493-6 (engineered cell line derived from human B-cells) was determined. Adding doxycycline to P493-6 growth media shuts off Myc transcription. Exemplary results are shown in FIGS. 3A to 3B, where cell viability was assessed by CELL TITER GLO assay (Promega). FIG. 3A depicts the assay results for cells expressing Myc, and FIG. 3B depicts the assay results for non-Myc expressing cells. […] The selectivity of other compounds described herein in cancer cell line cancer cell line P493-6 was also determined, and exemplary results are shown in Table 2, where viability was assessed by CELL TITER GLO assay (Promega).

The next series has as its system c-Myc. Kind of series: c-Myc reporter gene assay (Qiagen), Firefly/Renilla ratio, HEK293T cells. It counts as cell-based. On the procedure:
The activity of Compound 1 against Myc was measured as a Firefly/Renilla ratio, using the Myc reporter assay (Qiagen) in HEK293T cells after treatment with Compound 1 for 16 hours. Results are expressed as a mean+/−SD (n=3). SD: standard deviation.
Select compounds described herein that were SMM assay positives were evaluated in several versions of a c-Myc reporter gene assay, including a commercial assay from Qiagen. The compounds' activities against c-Myc were measured as a Firefly/Renilla ratio, using the Myc reporter assay (Qiagen) in HEK293T cells after treatment with the compounds for 16 hours.
For orientation: Reporter assays use an easily measured gene product as a stand-in for the process of interest.

The test system of a further series is P493-6 Myc OFF cells. In words: Cell viability, CELL TITER GLO, P493-6 Myc OFF. The format is cell-based, human.
Source text: as §1, §2
Background: ATP-based viability assays read luminescence as a measure of living cells.

For series [1], the system named is ST486, CA46, NCI-H1963, GBM4 cancer cell lines. Kind of series: Cell viability, CELL TITER GLO, cancer cell lines ST486, CA46, NCI-H1963, GBM4. It counts as cell-based. The conditions noted are these: 3 days treatment (4 days GBM4). The protocol:
Compound 1 affected cell viability after treatment with Compound 1 for 3 days (and 4 days for GBM4 and NHA), as measured using CELL TITER GLO (Promega) in 4 different cancer cell lines: ST486 (Burkitt's lymphoma; FIG. 2), CA46 (Burkitt's lymphoma; FIG. 2), NCI-H1963 (small cell lung cancer; FIG. 2), and GBM4 (glioblastoma; FIG. 2). The cell viability of normal human astrocytes (NHA) was also assayed. Results were expressed as a mean+/−SEM (n=2). The effect of Compound 1 on cell viability in several cancer cell lines and normal human astrocytes (NHA) was determined. The cancer cell lines employed in the assay included those corresponding to Burkitt's lymphoma (ST486 and CA46), small cell lung cancer (NCI-H1963), and glioblastoma (GBM4). The cell viability of normal human astrocytes (NHA) was also assayed. Exemplary results are shown in FIG. 2, where viability was assessed by CELL TITER GLO assay (Promega). […] The effects of other compounds described herein on cell viability in several cancer cell lines were also determined, and exemplary results are shown in Table 2, where viability was assessed by CELL TITER GLO assay (Promega).

A short description of series [2]: Intrinsic clearance, liver microsomes. The conditions noted are these: Intrinsic clearance (liver microsomes, human). The format is in vitro ADME.
A short description of series [3]: Aqueous solubility at 25° C. It counts as physicochemical.
A further series relates to Myc transcript. Kind of series: qPCR of Myc transcript levels. It counts as cell-based. In general terms: Real-time PCR tracks product formation cycle by cycle.
The next series deals with P3HR1. Kind of series: Viability assay in P3HR1. The format is cell-based. The conditions noted are these: Homo sapiens, P3HR-1; P3HR1, non-engineered cell line.
Series [4] concerns the target T1, Max homodimer (Homo sapiens, UniProt P61244). In words: EMSA with recombinant Max, homodimer binding to DNA. The text has this: (§3) This leads to a hypothesize that KI-MS2-008 stabilizes the Max homodimer.
Another series has as its system MYC-driven T-ALL model. In words: MYC-driven T-ALL / lymphoma model, Luc-labeled cells transplanted into NSG mice. It counts as in vivo.
A further series deals with c-Myc/Max heterodimer (Homo sapiens, UniProt P61244). In words: Electrophoretic mobility shift assay, c-Myc/Max heterodimer. The format is binding.
c-Myc/Max heterodimer, sequence (P61244 whole entry, one chain of several): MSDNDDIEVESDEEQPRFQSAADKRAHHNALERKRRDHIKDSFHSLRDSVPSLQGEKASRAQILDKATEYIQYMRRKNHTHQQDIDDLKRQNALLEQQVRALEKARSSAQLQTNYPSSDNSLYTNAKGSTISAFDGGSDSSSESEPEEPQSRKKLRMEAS
Source text: as §3

In a further series the test system is ST-486. In words: Viability assay in ST-486. The format is cell-based. The following applies: Homo sapiens, ST486; ST-486, non-engineered cell line.
The subject of a further series is Myc. Kind of series: Myc protein levels. The following applies: recovered by proteasome inhibition. It counts as cell-based.
Series [5] concerns the target T1, Max homodimer. In words: fPLC quantification of Max monomer vs. Max homodimer. It counts as binding. The following applies: monomer vs. homodimer populations.
Source text: as §3

Where [6] appears, read: Table 3, read-out: IC50 Reporter assay.
[7] abbreviates: Table 3, read-out: IC50 Myc OFF.
The mark [8] stands for this setting: Homo sapiens, HEK-293T, HEK293T cells, 16 hours, Table 2, read-out: c-Myc reporter assay IC50.
The mark [9] stands for this setting: Homo sapiens, HEK-293T, read-out: IC50 value in Myc reporter assay.

≈ marks a conversion by molar mass, not a printed value. Where two headings read alike, the source gives them in different places. Some results are limits rather than exact numbers.

T1 sequence (P61244 whole entry): as the sequence (P61244 whole entry, one chain of several) above

As to `O=C1N(CCS(=O)(=O)c2ccccc2)Cc2ccccc2[C@@H]2OC(c3ccc(OCCCO)cc3)=N[C@]12Cc1ccccc1` (single isomer, unassigned) [15^a], the IC50 in the series with P493-6 Myc ON cells (Table 3, listed as 15^b, read-out: IC50 Myc ON) was 8.49 µM; in the series with P493-6 Myc ON cells (Table 3, listed as 15^c, read-out: IC50 Myc ON), 16.6 µM; in the series with P493-6 Myc ON cells (Table 3, read-out: IC50 Myc ON) it was 14.5 µM; in the series with c-Myc (HEK293T cells, 16 hours, Table 2, read-out: c-Myc reporter assay IC50), 4.28 µM; in the series with c-Myc (Table 3, listed as 15^b, read-out: IC50 Reporter assay), 4.74 µM; in the series on c-Myc (Table 3, listed as 15^c, read-out: IC50 Reporter assay) it was 4.77 µM. Also, the IC50 with c-Myc (setting [6]) is 11.7 µM; in the series with P493-6 Myc OFF cells (setting [7]), over 50 µM.
Regarding `O=C1N(CCS(=O)(=O)c2ccccc2)Cc2ccccc2[C@@H]2OC(c3ccc(OCCCO)cc3)=N[C@]12Cc1ccccc1` [Compound 1], the “Effect on cell viability” value in series [1] is recorded as “demonstrated an effect in cell viability”. For the same molecule, the IC50 with P493-6 Myc ON cells (Homo sapiens, P493-6, CELL TITER GLO, Table 2, read-out: P493-6 Myc ON Viability in cells) was 6.8 µM; with c-Myc (setting [8]), 1.99 µM; with c-Myc (setting [9]), 2.77 µM; in the series with P493-6 Myc OFF cells (Homo sapiens, P493-6, CELL TITER GLO, Table 2, read-out: P493-6 Myc OFF Viability in cells), 58.1 µM. Moreover, the “Selectivity for cells expressing Myc over non-Myc expressing cells” value with P493-6 Myc ON cells (P493-6, Myc ON vs. Myc OFF (doxycycline)) is given as “demonstrated a selectivity for cells expressing Myc”. For the same molecule, the half-life in series [2] stood at 21 min. Also, the solubility is 51.2 µM (≈ 31.3 µg/mL) in [3] (Aqueous solubility (simulated gastric fluid)); 9.2 µM (≈ 5.62 µg/mL) in [3] (aqueous buffer, Aqueous solubility (PBS, pH 7.4)); 200 µM (≈ 122 µg/mL) in series [3] (fassgf or other biorelevant, Aqueous solubility (simulated intestinal fluid)).
Regarding `O=C1NCc2ccccc2[C@@H]2OC(c3ccccc3)=N[C@H]12` [Compound 1a], in the series with c-Myc (setting [6]), the IC50 is over 50 µM.
In the case of `O=C1NCc2ccccc2[C@@H]2OC(c3ccccc3)=N[C@]12Cc1ccccc1` [Compound 2a], the IC50 with P493-6 Myc ON cells (Table 3, read-out: IC50 Myc ON) is over 50 µM; in the series on c-Myc (setting [6]) it was 16.8 µM; with P493-6 Myc OFF cells (setting [7]), over 50 µM.
On to `O=C1N(CCS(=O)(=O)c2ccccc2)Cc2ccccc2[C@@H]2OC(c3ccccc3)=N[C@]12Cc1ccccc1` [Compound 3a], for which the IC50 in the series on P493-6 Myc ON cells (Table 3, read-out: IC50 Myc ON) is 11.4 µM; with c-Myc (setting [6]), 6.19 µM; in the series with P493-6 Myc OFF cells (setting [7]), over 50 µM.
For `C=CCN1Cc2ccccc2[C@@H]2OC(c3ccccc3)=N[C@]2(Cc2ccccc2)C1=O` [Compound 4a] the same measures were 31.8 µM, 7.67 µM and over 50 µM.
As to `O=C(CCCCC1SCC2NC(=O)NC21)NCCOCCOCCNC(=O)OCCCOc1ccc(C2=N[C@]3(Cc4ccccc4)C(=O)N(CCS(=O)(=O)c4ccccc4)Cc4ccccc4[C@@H]3O2)cc1` (stereo partly drawn) [Compound 5], the IC50 came out at 5.38 µM in the series with c-Myc (setting [8]) and 5.4 µM in the series on c-Myc (setting [9]).
As to `COC(=O)[C@@]1(Cc2ccccc2)N=C(c2ccccc2)O[C@H]1c1ccccc1CN=[N+]=[N-]` [Compound 6, Methyl (4S,5S)-5-(2-(azidomethyl)phenyl)-4-benzyl-2-phenyl-4,5-dihydrooxazole-4-carboxylate], the IC50 in the series on c-Myc (setting [8]) was determined as 4.67 µM.
Turning to `CCOC(=O)CN1Cc2ccccc2[C@@H]2OC(c3ccccc3)=N[C@]2(Cc2ccccc2)C1=O` [Compound 7a], the IC50 in the series with P493-6 Myc ON cells (Table 3, read-out: IC50 Myc ON) was 39.3 µM; in the series with c-Myc (setting [6]), 3.38 µM; in the series with P493-6 Myc OFF cells (setting [7]) it was over 50 µM.
For `O=C(O)CN1Cc2ccccc2[C@@H]2OC(c3ccccc3)=N[C@]2(Cc2ccccc2)C1=O` [Compound 8a] the same measures were over 50 µM, over 50 µM and over 50 µM.
For `O=C1N(CCO)Cc2ccccc2[C@@H]2OC(c3ccccc3)=N[C@]12Cc1ccccc1` [Compound 10a], the IC50 in the series on c-Myc (setting [6]) came to 2.15 µM.
On the same count and under the same terms, for `C#CCNC(=O)CN1Cc2ccccc2[C@@H]2OC(c3ccccc3)=N[C@]2(Cc2ccccc2)C1=O` [Compound 11a] the value was 10.1 µM; for `C#CCN(CC(=O)NCCNC(=O)CN1Cc2ccccc2[C@@H]2OC(c3ccccc3)=N[C@]2(Cc2ccccc2)C1=O)C(=O)CCC1(C)N=N1` [Compound 12a], 18.7 µM.
`O=C1N(CCS(=O)(=O)c2ccccc2)Cc2ccccc2[C@@H]2OC(c3ccccc3)=N[C@]12Cc1ccccc1` [KI-MS2-008]: the Myc transcript levels result with Myc transcript is given as “decreases Myc transcript levels”. Further, the values for the IC50 in the series with P3HR1 and with ST-486 were 51.1 µM and 18.7 µM, respectively. The “Max homodimer binding to DNA (EMSA)” value on Max homodimer [4] is listed as “dose-dependent increase of Max homodimer binding to DNA”. In addition, the Tumor volume result in the series on MYC-driven T-ALL model is “impacts tumor volume”. The “Disruption of c-Myc/Max heterodimer (EMSA)” value on c-Myc/Max heterodimer was “does not disrupt the c-Myc/Max heterodimer”. Also, the Myc protein levels result in the series with Myc is recorded as “decreases Myc protein levels”. For the same molecule, the “Induced dimerization of the Max homodimer” value at Max homodimer [5] was determined as 9.9%.
